# Measured values taken from publication PMC6331977, “Bioassay-Guided Isolation and Identification of Xanthine Oxidase Inhibitory Constituents from the Leaves of Perilla frutescens” (Molecules, 2015).
# Columns and labels:
# xanthine oxidase (XO) [1] = target: T1, xanthine oxidase (XO) (Bos taurus, UniProt P80457); experiment: Assay of XO inhibitory modes of action (enzyme kinetics, Lineweaver-Burk plots); conditions: for Mode of Inhibition: Lineweaver-Burk plots
# xanthine oxidase (XO) [2] = target: T1, xanthine oxidase (XO); experiment: Assay of XO activity (uric acid formation determined by HPLC); format: biochemical; parameters: purchased Sigma-Aldrich Chemicals (St. Louis, MO, USA); conditions: for XO inhibitory activity (in words): in vitro; for IC50: xanthine as substrate, 25 °C, pH 7.5, uric acid by HPLC
# T1 sequence (P80457 whole entry): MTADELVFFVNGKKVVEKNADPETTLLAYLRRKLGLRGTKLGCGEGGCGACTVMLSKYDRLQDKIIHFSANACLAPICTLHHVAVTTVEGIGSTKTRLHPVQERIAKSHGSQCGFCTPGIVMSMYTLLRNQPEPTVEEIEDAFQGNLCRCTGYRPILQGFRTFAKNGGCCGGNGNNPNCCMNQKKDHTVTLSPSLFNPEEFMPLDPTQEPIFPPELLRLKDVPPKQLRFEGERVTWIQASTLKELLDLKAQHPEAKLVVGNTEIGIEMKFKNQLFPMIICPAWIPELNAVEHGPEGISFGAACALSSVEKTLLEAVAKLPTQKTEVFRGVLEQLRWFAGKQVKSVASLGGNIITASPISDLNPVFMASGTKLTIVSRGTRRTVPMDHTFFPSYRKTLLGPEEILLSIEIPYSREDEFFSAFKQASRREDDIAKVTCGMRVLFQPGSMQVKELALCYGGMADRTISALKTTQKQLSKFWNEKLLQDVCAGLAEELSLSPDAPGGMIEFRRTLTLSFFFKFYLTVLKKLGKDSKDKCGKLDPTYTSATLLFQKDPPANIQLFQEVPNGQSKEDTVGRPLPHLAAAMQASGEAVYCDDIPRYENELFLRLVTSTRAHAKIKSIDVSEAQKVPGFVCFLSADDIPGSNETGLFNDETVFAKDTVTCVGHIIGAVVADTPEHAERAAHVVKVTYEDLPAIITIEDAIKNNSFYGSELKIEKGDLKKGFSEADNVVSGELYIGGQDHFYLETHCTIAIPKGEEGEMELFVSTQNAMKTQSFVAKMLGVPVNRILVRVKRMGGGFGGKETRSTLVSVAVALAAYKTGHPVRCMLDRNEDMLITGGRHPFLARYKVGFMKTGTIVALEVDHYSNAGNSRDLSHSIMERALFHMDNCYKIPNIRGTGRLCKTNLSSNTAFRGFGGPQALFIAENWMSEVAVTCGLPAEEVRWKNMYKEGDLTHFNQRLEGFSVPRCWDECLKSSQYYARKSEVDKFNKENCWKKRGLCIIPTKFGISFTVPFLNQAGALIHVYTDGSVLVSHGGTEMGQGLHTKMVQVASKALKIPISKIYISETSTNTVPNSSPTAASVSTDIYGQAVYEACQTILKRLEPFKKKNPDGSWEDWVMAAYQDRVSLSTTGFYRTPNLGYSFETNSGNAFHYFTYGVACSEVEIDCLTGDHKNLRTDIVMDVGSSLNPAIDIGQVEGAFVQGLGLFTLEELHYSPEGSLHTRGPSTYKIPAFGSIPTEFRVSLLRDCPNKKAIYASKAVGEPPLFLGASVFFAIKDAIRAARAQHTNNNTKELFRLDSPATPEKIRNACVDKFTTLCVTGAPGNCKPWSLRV
Compound,Mode of Inhibition (xanthine oxidase (XO) [1]),Mode of Inhibition (xanthine oxidase (XO) [1]; listed as allopurinol),Ki (xanthine oxidase (XO) [1]) [µM],Mode of Inhibition (xanthine oxidase (XO) [1]; listed as apigenin),XO inhibitory activity (in words) (xanthine oxidase (XO) [2]),IC50 (xanthine oxidase (XO) [2]) [µM]
"Oc1ncnc2[nH]ncc12 [Allopurinol, reference compound]",Competitive,competitive inhibitions,,,,
"O=c1cc(-c2ccc(O)cc2)oc2cc(O)cc(O)c12 [Apigenin, apigenin]",Mixed,,0.11,mixed inhibition mode,could significantly inhibit the production of uric acid,0.44
"O=C(O)/C=C/c1ccc(O)c(O)c1 [Caffeic acid, caffeic acid]",,,9.22,,,121
"COC(=O)[C@@H](Cc1ccc(O)c(O)c1)OC(=O)/C=C/c1ccc(O)c(O)c1 [Methyl rosmarinate, methyl rosmarinate]",Competitive,,2.85,,could significantly inhibit the production of uric acid,26.6
"O=C(/C=C/c1ccc(O)c(O)c1)O[C@H](Cc1ccc(O)c(O)c1)C(=O)O [Rosmarinic acid, rosmarinic acid]",Competitive,,26.2,,weak XO inhibitory activities,91.7
"C=COC(=O)/C=C/c1ccc(O)c(O)c1 [Vinyl caffeate, vinyl caffeate]",Competitive,,5.05,,could significantly inhibit the production of uric acid,31.3
